Tested on: mpkCCDc14 cell line
Test: Short-circuit current electrophysiology in renal principal cells
Assay type: cell-based, mouse
Settings: FIG. 4
Excerpt: Described herein is the method of short-circuit electrophysiology used for detailed examination of the nature of the ion channels stimulated in response to cyst fluid. These studies utilized mouse principal cells of the kidney cortical collecting duct, clone 4 (mpkCCDc14) cell line. These cells have the characteristics of the principal cell type found in the distal portion of the renal nephron. Principal cells often line renal cysts. […] This finding is in agreement with Granthan et al. However, the activation of other ion channels by the fluid was also discovered. When examined in real time, the nature of channel activity by the cyst was quite different than the activity seen in response to forskolin, as shown in FIG. 1. These studies indicate that there are components found in cyst fluid that stimulate multiple ion transporters, which together cause electrolyte and fluid secretion into the cyst lumen.
Electrophysiological testing of effects NASPA on short circuit current. Cell preparations were pre-incubated with NASPA (10 μM) or diluent (DMSO) for 15 minutes prior to administration of 10% fetal bovine serum (FBS). FBS was administered serosally at time zero.
Electrophysiological testing of effects VPC 32183 on LPA induced increase in short circuit current. […]

SMILES: CCCCCCCCCCCCCCCC(=O)N[C@@H](COP(=O)(O)O)C(=O)O [NASPA]
- effect on response to LPA added as part of fetal bovine serum (short circuit current) (NASPA 10 μM pre-incubated 15 minutes, 10% FBS added serosally at time zero, versus diluent (DMSO)): antagonized the LPA added as part of the fetal bovine serum
- effect on short circuit current when first added (NASPA 10 μM, 15 minutes pre-incubation before 10% FBS): appeared to act like an agonist when first added

From US20110044973A1, “TREATMENT OF CYSTIC DISEASE WITH LYSOPHOSPHATIDIC ACID ANTAGONISTS” (priority 2009, published 2011)
